Laboratory results taken from US20240124444A1 (Celgene Corporation, priority 2020, published 2024).
Like-named read-outs stand apart in the source and are kept apart here.

Test system: C. parvum strain UGA1
Test: C. parvum growth inhibition assay (Nluc luminescence in HCT-8 cells)
Assay type: cell-based, Cryptosporidium parvum
Conditions: for inhibition at 1 µM / inhibition at 10 µM: HCT-8; for inhibition at 1 µM: read-out: % inh @ 1 uM C. parvum; for inhibition at 10 µM: read-out: % inh @ 10 uM C. parvum; for EC50: C. parvum growth inhibition in HCT-8 cells, 48 hours, 6 concentrations 10-0.04 μM
[1] = Cryptosporidium parvum, single point inhibition @ 1 uM
[2] = Cryptosporidium parvum, single point inhibition @ 10 uM
[3] = Cryptosporidium parvum, single point inhibition at 1 uM
[4] = Cryptosporidium parvum, single point inhibition at 10 uM
[5] = Cryptosporidium parvum, HCT-8, 48 h

| SMILES | inhibition at 1 µM [3] | inhibition at 10 µM [4] | EC50 [5] | further results |
| --- | --- | --- | --- | --- |
| CC(Oc1nccc(-c2cc3cnc(NC(=O)c4cnn(C)c4)cc3[nH]2)n1)C(F)F (stereo not drawn) [Example 141, N-(2-(2-(1,1-difluoropropan-2-yloxy)pyrimidin-4-yl)-1H-pyrrolo[3,2-c]pyridin-6-yl)-1-methyl-1H-pyrazole-4-carboxamide] | – | – | – | inhibition at 1 µM [1]: 0 to 33%; inhibition at 10 µM [2]: 67 to 100% |
| Cn1cc(-c2cc3cnc(NC(=O)C4CC4)cc3[nH]2)cn1 [Example 210, N-(2-(1-methyl-1H-pyrazol-4-yl)-1H-pyrrolo[3,2-c]pyridin-6-yl)cyclopropanecarboxamide] | 0 to 33% | 67 to 100% | – | – |
| CC(C)n1cc(C(=O)Nc2cc3c(cn2)cc(-c2ccnc(NCC(F)F)n2)n3C)cn1 [Example 169, N-(2-(2-(2,2-difluoroethylamino)pyrimidin-4-yl)-1-methyl-1H-pyrrolo[3,2-c]pyridin-6-yl)-1-isopropyl-1H-pyrazole-4-carboxamide] | – | – | – | inhibition at 1 µM [1]: 0 to 33%; inhibition at 10 µM [2]: 67 to 100% |
| CN1CCC(c2cc3cnc(NC(=O)C4CC4)cc3[nH]2)CC1 [Example 255, N-(2-(1-methylpiperidin-4-yl)-1H-pyrrolo[3,2-c]pyridin-6-yl)cyclopropanecarboxamide] | 0 to 33% | 0 to 33% | – | – |
| O=C(Nc1cc2[nH]c(-c3ccncc3)cc2cn1)C1CCCC1 [Example 137, N-(2-(pyridin-4-yl)-1H-pyrrolo[3,2-c]pyridin-6-yl)cyclopentanecarboxamide] | – | – | – | inhibition at 1 µM [1]: 0 to 33%; inhibition at 10 µM [2]: 67 to 100% |
| Cn1c(-c2ccnc(NCC(F)(F)F)n2)cc2cnc(NC(=O)c3cnn(C4CCOC4)c3)cc21 (stereo in doubt) [Example 142, (R)-N-(1-methyl-2-(2-(2,2,2-trifluoroethylamino)pyrimidin-4-yl)-1H-pyrrolo[3,2-c]pyridin-6-yl)-1-(tetrahydrofuran-3-yl)-1H-pyrazole-4-carboxamide] | – | – | – | inhibition at 1 µM [1]: 67 to 100%; inhibition at 10 µM [2]: 67 to 100% |
| O=C(CC1COC1)Nc1cc2[nH]c(-c3ccnc(C(F)(F)F)n3)cc2cn1 [Example 91, 2-(oxetan-3-yl)-N-(2-(2-(trifluoromethyl)pyrimidin-4-yl)-1H-pyrrolo[3,2-c]pyridin-6-yl)acetamide] | – | – | > 1 µM | inhibition at 1 µM [1]: 0 to 33%; inhibition at 10 µM [2]: 0 to 33% |
| Cc1nccc(-c2cc3cnc(NC(=O)C4CC4)cc3n2C)n1 [Example 100, N-(1-methyl-2-(2-methylpyrimidin-4-yl)-1H-pyrrolo[3,2-c]pyridin-6-yl)cyclopropanecarboxamide] | – | – | > 1 µM | – |
| CCn1c(-c2cc(C)ncn2)cc2cnc(NC(=O)C3CC3)cc21 [Example 122, N-(1-ethyl-2-(6-methylpyrimidin-4-yl)-1H-pyrrolo[3,2-c]pyridin-6-yl)cyclopropanecarboxamide] | – | – | > 1 µM | – |
| CN(CC(F)(F)F)c1nccc(-c2cc3cnc(NC4CCOCC4)cc3[nH]2)n1 [Example 370, 2-(2-(methyl(2,2,2-trifluoroethyl)amino)pyrimidin-4-yl)-N-(tetrahydro-2H-pyran-4-yl)-1H-pyrrolo[3,2-c]pyridin-6-amine] | – | – | 0.5 to 1 µM | – |
| Cc1ccccc1-c1cc2cnc(NC3CCOCC3)cc2[nH]1 [Example 357, N-(tetrahydro-2H-pyran-4-yl)-2-o-tolyl-1H-pyrrolo[3,2-c]pyridin-6-amine] | – | – | > 1 µM | – |
| CCOc1nccc(-c2cc3cnc(NC(=O)c4cn(CC5CCCO5)nc4C)cc3[nH]2)n1 (stereo in doubt) [Example 322, (S)-N-(2-(2-ethoxypyrimidin-4-yl)-1H-pyrrolo[3,2-c]pyridin-6-yl)-3-methyl-1-((tetrahydrofuran-2-yl)methyl)-1H-pyrazole-4-carboxamide] | 0 to 33% | 0 to 33% | – | – |
| CCOc1nccc(-c2cc3cnc(NC(=O)c4cnn([C@H]5C[C@H](O)C5)c4)cc3[nH]2)n1 [Example 270, N-(2-(2-ethoxypyrimidin-4-yl)-1H-pyrrolo[3,2-c]pyridin-6-yl)-1-((1r,3r)-3-hydroxycyclobutyl)-1H-pyrazole-4-carboxamide] | 0 to 33% | 0 to 33% | – | – |
| COc1nccc(-c2cc3cnc(NC(=O)c4cccc5[nH]ncc45)cc3[nH]2)n1 [Example 269, N-(2-(2-methoxypyrimidin-4-yl)-1H-pyrrolo[3,2-c]pyridin-6-yl)-1H-indazole-4-carboxamide] | 0 to 33% | 0 to 33% | – | – |
| CC(C)n1cc(C(=O)Nc2cc3[nH]c(-c4ccnc(OCCC(F)(F)F)n4)cc3cn2)cn1 [Example 175, 1-isopropyl-N-(2-(2-(3,3,3-trifluoropropoxy)pyrimidin-4-yl)-1H-pyrrolo[3,2-c]pyridin-6-yl)-1H-pyrazole-4-carboxamide] | – | – | – | inhibition at 1 µM [1]: 0 to 33%; inhibition at 10 µM [2]: 67 to 100% |
| c1cncc(-c2cc3cnc(NC4CCOCC4)cc3[nH]2)c1 [Example 72, 2-(pyridin-3-yl)-N-(tetrahydro-2H-pyran-4-yl)-1H-pyrrolo[3,2-c]pyridin-6-amine] | – | – | > 1 µM | inhibition at 1 µM [1]: 0 to 33%; inhibition at 10 µM [2]: 0 to 33% |
| Cc1cc(-c2cc3cnc(NC4CCCOC4)cc3[nH]2)ccn1 (stereo in doubt) [Example 355, (S)-2-(2-methylpyridin-4-yl)-N-(tetrahydro-2H-pyran-3-yl)-1H-pyrrolo[3,2-c]pyridin-6-amine] | – | – | > 1 µM | – |

| SMILES | inhibition at 1 µM [3] | inhibition at 10 µM [4] | EC50 [5] | further results |
| --- | --- | --- | --- | --- |
| COc1nccc(-c2cc3cnc(NC(=O)c4ccc(N5CCOCC5)cc4)cc3[nH]2)n1 [Example 320, N-(2-(2-methoxypyrimidin-4-yl)-1H-pyrrolo[3,2-c]pyridin-6-yl)-4-morpholinobenzamide] | 0 to 33% | 0 to 33% | – | – |
| O=C(Nc1cc2[nH]c(-c3ccnc(C(F)(F)F)n3)cc2cn1)C1C2CCCC21 (stereo not drawn) [Example 199, N-(2-(2-(trifluoromethyl)pyrimidin-4-yl)-1H-pyrrolo[3,2-c]pyridin-6-yl)bicyclo[3.1.0]hexane-6-carboxamide] | 0 to 33% | 67 to 100% | – | – |
| Cc1cc(-c2cc3cnc(NC(=O)c4cc(C(F)(F)F)n(C)n4)cc3[nH]2)ccn1 [Example 294, 1-methyl-N-(2-(2-methylpyridin-4-yl)-1H-pyrrolo[3,2-c]pyridin-6-yl)-5-(trifluoromethyl)-1H-pyrazole-3-carboxamide] | 0 to 33% | 0 to 33% | – | – |
| Cn1c(-c2cc(NCC(F)(F)F)ncn2)cc2cnc(NC3CCOCC3)cc21 [Example 365] | – | – | > 1 µM | – |
| c1cc(-c2cc3cnc(NC4CCOCC4)cc3[nH]2)nc(N2CCCC2)n1 [Example 372, 2-(2-(pyrrolidin-1-yl)pyrimidin-4-yl)-N-(tetrahydro-2H-pyran-4-yl)-1H-pyrrolo[3,2-c]pyridin-6-amine] | – | – | < 0.5 µM | – |
| COc1cc(-c2cc3cnc(NC4CCOCC4)cc3n2C)ncn1 [Example 388, 2-(6-methoxypyrimidin-4-yl)-1-methyl-N-(tetrahydro-2H-pyran-4-yl)-1H-pyrrolo[3,2-c]pyridin-6-amine] | – | – | > 1 µM | – |
| CN(C(=O)c1cnn(C)c1)c1cc2[nH]c(-c3ccnc(NCC(F)(F)F)n3)cc2cn1 [Example 257, N,1-dimethyl-N-(2-(2-(2,2,2-trifluoroethylamino)pyrimidin-4-yl)-1H-pyrrolo[3,2-c]pyridin-6-yl)-1H-pyrazole-4-carboxamide] | 0 to 33% | 0 to 33% | – | – |
| Cn1cc(-c2cc3cnc(Nc4ccccc4)cc3n2C)cn1 [Example 70, 1-methyl-2-(1-methyl-1H-pyrazol-4-yl)-N-phenyl-1H-pyrrolo[3,2-c]pyridin-6-amine] | – | – | > 1 µM | inhibition at 1 µM [1]: 33 to 66%; inhibition at 10 µM [2]: 67 to 100% |
| Cc1cc(-c2cc3cnc(NC(=O)[C@H]4CCCO4)cc3[nH]2)ccn1 [Example 212, (R)-N-(2-(2-methylpyridin-4-yl)-1H-pyrrolo[3,2-c]pyridin-6-yl)tetrahyrdofuran-2-carboxamide] | – | – | – | % inh @ 1 uM C. parvum (single point inhibition at 1 uM): D (single point inhibition values of 0-33% (activity level D)); % inh @ 10 uM C. parvum (single point inhibition at 10 uM): F (between 67% and 100% (activity level F)) |
| Cc1cc(-c2cc3cnc(NC(=O)C45CC(C4)C5)cc3[nH]2)ccn1 [Example 298, N-(2-(2-methylpyridin-4-yl)-1H-pyrrolo[3,2-c]pyridin-6-yl)bicyclo[1.1.1]pentane-1-carboxamide] | 0 to 33% | 0 to 33% | – | – |
| COc1nccc(-c2cc3cnc(NC(=O)c4ccc(OC5CCOCC5)cc4)cc3n2C)n1 [Example 188, N-(2-(2-methoxypyrimidin-4-yl)-1-methyl-1H-pyrrolo[3,2-c]pyridin-6-yl)-4-(tetrahydro-2H-pyran-4-yloxy)benzamide] | – | – | – | inhibition at 1 µM [1]: 0 to 33%; inhibition at 10 µM [2]: 67 to 100% |
| Cc1nccc(-c2cc3cnc(NC(=O)C4CCC4)cc3[nH]2)n1 [Example 99, N-(2-(2-methylpyrimidin-4-yl)-1H-pyrrolo[3,2-c]pyridin-6-yl)cyclobutanecarboxamide] | – | – | > 1 µM | – |
| Cc1cc(-c2cc3cnc(NC4CCCOC4)cc3[nH]2)ccn1 (stereo in doubt) [Example 356, (R)-2-(2-methylpyridin-4-yl)-N-(tetrahydro-2H-pyran-3-yl)-1H-pyrrolo[3,2-c]pyridin-6-amine] | – | – | – | EC50: < 0.5 µM |
| FC(F)(F)CNc1cc(-c2cc3cnc(NC4CCOCC4)cc3[nH]2)ccn1 [Example 363, N-(tetrahydro-2H-pyran-4-yl)-2-(2-(2,2,2-trifluoroethylamino)pyridin-4-yl)-1H-pyrrolo[3,2-c]pyridin-6-amine] | – | – | < 0.5 µM | – |
| Cn1cc(C(=O)Nc2cc3c(cn2)cc(C#N)n3C)cn1 [Example 279, N-(2-cyano-1-methyl-1H-pyrrolo[3,2-c]pyridin-6-yl)-1-methyl-1H-pyrazole-4-carboxamide] | 0 to 33% | 0 to 33% | – | – |
| CCOc1nccc(-c2cc3cnc(NC4CCOCC4)cc3[nH]2)n1 [Example 377, 2-(2-ethoxypyrimidin-4-yl)-N-(tetrahydro-2H-pyran-4-yl)-1H-pyrrolo[3,2-c]pyridin-6-amine] | – | – | > 1 µM | – |
